These are literature values, as cited in patent US9534000B2, “Cytotoxic benzodiazepine derivatives and methods of preparation” (ImmunoGen, Inc., priority 2011, dated 2017).

Structures are written as SMILES.

The conditions of the series: Phase I clinical evaluation.

Take `C=C1C[C@H]2C=Nc3cc(OCCCOc4cc5c(cc4OC)C(=O)N4CC(=C)C[C@H]4C=N5)c(OC)cc3C(=O)N2C1` [SJG-136]: the “DNA damage in circulating lymphocytes” value was “noted at all doses”.
